Data taken from US9695155B2, “Herbicidal substituted pyrimidinyloxy benzene compounds” (E. I. DU PONT DE NEMOURS AND COMPANY, priority 2013, dated 2017).

Columns and labels:
yellow nutsedge = test: Test C postemergence; format: in vivo, Cyperus esculentus
Outline: (§1)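 Rated visually on 0–100 (100 = complete control) after 13–15 days under glass. Treatments went onto freshly seeded loam/sand soil or onto emerged plants at the 1- to 4-leaf stage, using a surfactant-containing solvent formulation.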

morningglory [1] = test: Test A postemergence; format: in vivo, Ipomoea spp.
Outline: (§2)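 Pre- and postemergence greenhouse screen. Soil: loam + sand. Spray carrier: solvent mixture, non-phytotoxic, with surfactant. Post timing at 1–2 leaves, height 2–10 cm. Readout: visual injury on a 0–100 scale roughly 10 days after application, untreated plants as reference.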

morningglory [2] = test: Test A preemergence; format: in vivo, Ipomoea spp.
Outline: as §2

giant foxtail [3] = test: Test C postemergence; format: in vivo, Setaria faberii
Outline: as §1

Italian ryegrass = test: Test C postemergence; format: in vivo, Lolium multiflorum
Outline: as §1

wild oat = test: Test C postemergence; format: in vivo, Avena fatua
Outline: as §1

chickweed = test: Test C postemergence; format: in vivo, Stellaria media
Outline: as §1

blackgrass = test: Test C postemergence; format: in vivo, Alopecurus myosuroides
Outline: as §1

johnsongrass = test: Test C postemergence; format: in vivo, Sorghum halepense
Outline: as §1

velvetleaf = test: Test A preemergence; format: in vivo, Abutilon theophrasti
Outline: as §2

large (Lg) crabgrass [4] = test: Test C postemergence; format: in vivo, Digitaria sanguinalis
Outline: as §1

waterhemp = test: Test C postemergence; format: in vivo, Amaranthus rudis
Outline: as §1

giant foxtail [5] = test: Test A preemergence; format: in vivo, Setaria faberii; conditions: for Foxtail, Giant plant response rating: 500 g ai/ha
Outline: as §2

corn = test: Test C postemergence; format: in vivo, Zea mays
Outline: as §1

large (Lg) crabgrass [6] = test: Test A preemergence; format: in vivo, Digitaria sanguinalis
Outline: as §2

[7] = Postemergence, 31 g ai/ha, scale 0 to 100 (0 no effect, 100 complete control), 13 to 15 days
[8] = Postemergence, 62 g ai/ha, scale 0 to 100 (0 no effect, 100 complete control)
[9] = 125 g ai/ha, 0 to 100 scale where 0 is no effect and 100 is complete control
[10] = 500 g ai/ha, 0 to 100 scale, 0 no effect, 100 complete control, approx. 10 days
[11] = 16 g ai/ha, postemergence, 0 is no effect, 100 is complete control
[12] = 31 g ai/ha, postemergence, visual rating, scale 0 to 100 (0 no effect, 100 complete control), 13 to 15 days
[13] = 125 g ai/ha, postemergence, visual rating, scale 0 to 100 (0 no effect, 100 complete control)
[14] = Postemergence, 62 g ai/ha, scale 0 to 100 (0 no effect, 100 complete control), 13 to 15 days

Fc1cnc(Oc2ccccc2-n2cc(C(F)(F)F)cn2)nc1 [Compound 47]
Plant response rating (0 to 100), Nutsedge, Yellow (yellow nutsedge; 125 g ai/ha, postemergence): 0
Plant response rating (0 to 100), Nutsedge, Yellow (yellow nutsedge; 250 g ai/ha, postemergence): 10
Plant response rating, Nutsedge, Yellow (yellow nutsedge; [7]): 0
Plant response rating, Nutsedge, Yellow (yellow nutsedge; [8]): 0
Plant response rating, Morningglory (morningglory [1]; [9]): 80
Plant response rating, Morningglory (morningglory [1]; 500 g ai/ha, 0 to 100 scale, 0 no effect, 100 complete control): 100
Plant response rating, Morningglory (morningglory [2]; [9]): 0
Morningglory plant response rating (morningglory [2]; [10]): 100
Plant response rating (0 to 100), Foxtail, Giant (giant foxtail [3]; 125 g ai/ha, postemergence): 25
Plant response rating (0 to 100), Foxtail, Giant (giant foxtail [3]; 250 g ai/ha, postemergence): 80
Plant response rating, Foxtail, Giant (giant foxtail [3]; [7]): 10
Plant response rating, Foxtail, Giant (giant foxtail [3]; [8]): 25
Plant response rating (0 to 100), Ryegrass, Italian (Italian ryegrass; 125 g ai/ha, postemergence): 0
Plant response rating (0 to 100), Ryegrass, Italian (Italian ryegrass; 250 g ai/ha, postemergence): 0
Plant response rating, Ryegrass, Italian (Italian ryegrass; [7]): 0
Plant response rating, Ryegrass, Italian (Italian ryegrass; [8]): 0
Plant response rating (0 to 100), Oat, Wild (wild oat; 125 g ai/ha, postemergence): 0
Plant response rating (0 to 100), Oat, Wild (wild oat; 250 g ai/ha, postemergence): 5
Plant response rating, Oat, Wild (wild oat; [7]): 0
Plant response rating, Oat, Wild (wild oat; [8]): 0
Plant response rating (0 to 100), Chickweed (chickweed; 125 g ai/ha, postemergence): 50
Plant response rating (0 to 100), Chickweed (chickweed; 250 g ai/ha, postemergence): 50
Plant response rating, Chickweed (chickweed; [7]): 5
Plant response rating, Chickweed (chickweed; [8]): 5
Plant response rating (0 to 100), Blackgrass (blackgrass; 125 g ai/ha, postemergence): 5
Plant response rating (0 to 100), Blackgrass (blackgrass; 250 g ai/ha, postemergence): 40
Plant response rating, Blackgrass (blackgrass; [7]): 0
Plant response rating, Blackgrass (blackgrass; [8]): 0
Plant response rating (0 to 100), Johnsongrass (johnsongrass; 125 g ai/ha, postemergence): 5
Plant response rating (0 to 100), Johnsongrass (johnsongrass; 250 g ai/ha, postemergence): 5
Plant response rating, Johnsongrass (johnsongrass; [7]): 0
Plant response rating, Johnsongrass (johnsongrass; [8]): 5
Plant response rating, Velvetleaf (velvetleaf; [9]): 100
Velvetleaf plant response rating (velvetleaf; [10]): 100
Plant response rating (0 to 100), Crabgrass, Large (large (Lg) crabgrass [4]; 125 g ai/ha, postemergence): 5
Plant response rating (0 to 100), Crabgrass, Large (large (Lg) crabgrass [4]; 250 g ai/ha, postemergence): 10
Plant response rating, Crabgrass, Large (large (Lg) crabgrass [4]; [7]): 5
Plant response rating, Crabgrass, Large (large (Lg) crabgrass [4]; [8]): 5
Plant response rating (0 to 100), Waterhemp (waterhemp; 125 g ai/ha, postemergence): 100
Plant response rating (0 to 100), Waterhemp (waterhemp; 250 g ai/ha, postemergence): 100
Plant response rating, Waterhemp (waterhemp; [7]): 100
Plant response rating, Waterhemp (waterhemp; [8]): 100
Plant response rating, Foxtail, Giant (giant foxtail [5]; [9]): 100
Foxtail, Giant plant response rating (giant foxtail [5]; 0 to 100 scale, 0 no effect, 100 complete control, approx. 10 days): 100
Plant response rating (0 to 100), Corn (corn; 125 g ai/ha, postemergence): 5
Plant response rating (0 to 100), Corn (corn; 250 g ai/ha, postemergence): 5
Plant response rating, Corn (corn; [7]): 0
Plant response rating, Corn (corn; [8]): 0
Plant response rating, Crabgrass, Large (large (Lg) crabgrass [6]; [9]): 90
Crabgrass, Large plant response rating (large (Lg) crabgrass [6]; [10]): 100

N#Cc1cn(-c2c(C#N)cccc2Oc2ncc(Cl)cn2)nn1 [Compound 273]
Plant response rating (0 to 100), Nutsedge, Yellow (yellow nutsedge; [11]): 10
Nutsedge, Yellow plant response rating (yellow nutsedge; [12]): 5
Plant response rating, Nutsedge, Yellow (yellow nutsedge; [13]): 25
Plant response rating, Nutsedge, Yellow (yellow nutsedge; [14]): 5
Plant response rating (0 to 100), Foxtail, Giant (giant foxtail [3]; [11]): 10
Foxtail, Giant plant response rating (giant foxtail [3]; [12]): 40
Plant response rating, Foxtail, Giant (giant foxtail [3]; [13]): 20
Plant response rating, Foxtail, Giant (giant foxtail [3]; [14]): 10
Plant response rating (0 to 100), Ryegrass, Italian (Italian ryegrass; [11]): 5
Ryegrass, Italian plant response rating (Italian ryegrass; [12]): 5
Plant response rating, Ryegrass, Italian (Italian ryegrass; [13]): 10
Plant response rating, Ryegrass, Italian (Italian ryegrass; [14]): 5
Plant response rating (0 to 100), Oat, Wild (wild oat; [11]): 5
Oat, Wild plant response rating (wild oat; [12]): 5
Plant response rating, Oat, Wild (wild oat; [13]): 10
Plant response rating, Oat, Wild (wild oat; [14]): 5
Plant response rating (0 to 100), Chickweed (chickweed; [11]): 10
Chickweed plant response rating (chickweed; [12]): 30
Plant response rating, Chickweed (chickweed; [13]): 70
Plant response rating, Chickweed (chickweed; [14]): 35
Plant response rating (0 to 100), Blackgrass (blackgrass; [11]): 5
Blackgrass plant response rating (blackgrass; [12]): 5
Plant response rating, Blackgrass (blackgrass; [13]): 10
Plant response rating, Blackgrass (blackgrass; [14]): 10
Plant response rating (0 to 100), Johnsongrass (johnsongrass; [11]): 0
Johnsongrass plant response rating (johnsongrass; [12]): 0
Plant response rating, Johnsongrass (johnsongrass; [13]): 5
Plant response rating, Johnsongrass (johnsongrass; [14]): 5
Plant response rating (0 to 100), Crabgrass, Large (large (Lg) crabgrass [4]; [11]): 5
Crabgrass, Large plant response rating (large (Lg) crabgrass [4]; [12]): 5
Plant response rating, Crabgrass, Large (large (Lg) crabgrass [4]; [13]): 10
Plant response rating, Crabgrass, Large (large (Lg) crabgrass [4]; [14]): 10
Plant response rating (0 to 100), Waterhemp (waterhemp; [11]): 35
Waterhemp plant response rating (waterhemp; [12]): 40
Plant response rating, Waterhemp (waterhemp; [13]): 80
Plant response rating, Waterhemp (waterhemp; [14]): 65
Foxtail, Giant plant response rating (0 to 100 scale) (giant foxtail [5]; 125 g ai/ha): 90
Foxtail, Giant plant response rating (giant foxtail [5]; 0 to 100 scale where 0 is no effect and 100 is complete control): 90
Plant response rating (0 to 100), Corn (corn; [11]): 5
Corn plant response rating (corn; [12]): 5
Plant response rating, Corn (corn; [13]): 5
Plant response rating, Corn (corn; [14]): 5
